Source: patent publication US20110059186A1, “CANCER STEM CELL-TARGETED AND DRUG RESISTANT CANCER THERAPY” (KOMINOX USA, INC., priority 2009, published 2011)
Like-named read-outs stand apart in the source and are kept apart here.

Columns and labels:
Assay type in all cases: cell-based, human
[1] = test system: side population of LnCaP cells
Experimental: (§1) Three samples were analyzed each time. Of the samples one was treated with DCV only, another was treated with DCV and 50 μM Verapamil (PgP inhibitor), and the last was treated with DCV and 10 μM Fumitremorgin C (FTC, BCRP inhibitor). The samples were then read and analyzed using flow cytometry.
(§2) Flow Cytometry: Samples were read on a BDLSR II flow cytometer. […] Detectors at 450/50 (blue) and 680/30 (red) intercepted the emitted wavelength and plotted the data on the scatter plot accordingly. CD44 and Pgp staining was performed using PE (Pgp) or APC (CD44) labeled antibodies and their isotype controls following routine procedures for epitope labeling.
(§3) Each of the prostate cell lines was analyzed for the existence of a cancer stem-like cell fraction using DCV side population analysis. […] The occurrence of a SP is based on the expression of drug efflux pumps such as P-glycoprotein or BCRP, which are responsible for preventing standard cytotoxic therapy from working. […] Because the hormone therapies, e.g., androgen synthesis inhibitors, are not substrates of drug efflux pumps, these findings are not surprising.

[2] = test system: side population of LnCaP/C81 cells
Experimental: as §1, §2, §3

[3] = test system: side population of LAPC-4 cells
Experimental: as §1, §2, §3

[4] = test system: side population of DU145/Doc50 cells
Experimental: as §1, §2, §3

[5] = test system: side population of LAPC-4/CSS100 cells
Experimental: as §1, §2, §3

[6] = test system: side population of DU145 cells
[7] = test system: side population of DU145/Pac200 cells
[8] = test system: DU145 wt cells; test: MTT proliferation assay, DU145 wt
Experimental: (§4) Cell Lines: DU145 wt, DU145/Pac200 and DU145/Doc50 cells were provided by Dr. Hussain, UMGCC, University of Maryland. The cell lines were cultured as recommended; in 1:1 DMEM/F12 media (Invitrogen) supplemented with 5% FBS, 1% antibiotics and grown under standard conditions at 37° C. and 5% CO2. Paclitaxel and docetaxel resistant clones were kept under selection pressure of the drugs.
(§5) MTT Proliferation Assay: Exponentially growing cells were harvested and plated in 96-well plates (1,500/well for DU145 wt, and 2,000-3,000/well for DU145/Pac200 and DU145/Doc50). Drugs being tested were added at concentrations ranging from 0.01 μM to 100 μM to asses their growth inhibitory potential. After 5 days of continuous exposure to drug, the vital dye 3-(4,5-dimethylthiazol-2-yl)-2,5-diphenyltetrazoliumbromide (MTT) was added to the plates. The conversion of MTT to purple formazan by viable cells was measured using a Synergy2 plate reader at 550 nm and Gen5 software. Growth curves were generated using Microsoft Excel and growth inhibitory concentration 50 (IC50) and 100% were determined.

[9] = test system: DU145/Doc50 (docetaxel resistant) cells; test: MTT proliferation assay, DU145/Doc50
Experimental: as §4, §5

[10] = test system: DU145/Pac200 (paclitaxel resistant) cells; test: MTT proliferation assay, DU145/Pac200
Experimental: as §4, §5

[11] = test system: prostate cancer cell lines (taxane-resistant, androgen resistant and parental); test: MTT assay across the panel of prostate cancer cell lines
Experimental: as §5
Taxane resistant cell lines DU145/Pac200 (highly pacitaxel resistant) and DU145/Doc50 (highly docetaxel resistant) together with the parental cell line DU145 as well as the androgen resistant cancer cell lines (LNCaP/C81 and LAPC-4/CSS100) and their corresponding hormone responsive parental cell lines (LNCaP and LAPC-4) were tested for their response to sodium meta arsenite.
The cancer cell lines that were resistant to paclixel and docetaxel were tested using a well-established tumor clonigenic stem cell assay for their response to KML001. (FIG. 6) The assay allows only the cancer stem cell population to grow in a soft agar matrix owing to their self-renewal capability. […]

[12] = test system: LAPC-4 cells; details: read-out: IC50 KML001
[13] = test system: LnCaP cells; details: read-out: IC50 KML001
[14] = test system: Pgp positive cell population of taxane-resistant prostate cancer cell lines; test: Pgp surface expression by flow cytometry; details: treatment at IC50 for 72 hours
Experimental: Flow Cytometry: Samples were read on a BDLSR II flow cytometer. A […] violet laser excited the DCV dye producing varying wavelengths based on cell differentiation. Detectors at 450/50 (blue) and 680/30 (red) intercepted the emitted wavelength and plotted the data on the scatter plot accordingly. CD44 and Pgp staining was performed using PE (Pgp) or APC (CD44) labeled antibodies and their isotype controls following routine procedures for epitope labeling.
The drug efflux pump (Pgp) is functionally expressed (at the membrane) in the majority of cells in the taxane-resistant prostate cancer cell lines, which is expected since the SP of those cell lines was suppressible with the drug efflux pump inhibitor verapamil. Treatment with KML001 at IC50 for 72 hours reduced the Pgp positive cell population, which corroborates the results of the clonogenic and SP assay.

[15] = test system: LnCaP/C81 cells; details: read-out: IC50 KML001
[16] = test system: LAPC-4/CSS100 cells; details: read-out: IC50 KML001
[17] = test system: hTERT transcript
[18] = test system: DU145 cancer stem cell population; details: read-out: IC50, colony forming capability
[19] = test system: DU145/Pac200 cancer stem cell population; details: read-out: IC50, colony forming capability
[20] = Du145 Doc50 relative to DU145 wt
[21] = DU145/Pac200 relative to DU145 wt

COc1ccc2c3c([nH]c2c1)[C@H](C=C(C)C)N1C(=O)[C@@H]2CCCN2C(=O)[C@@H]1C3 [FTC, Fumitremorgin C]
suppression of SP by efflux pump inhibitor ([1]; LnCaP parental line): suppressible | SP % with FTC ([1]; LnCaP, DCV with 10 μM FTC, SP 0.66 % without inhibitor): 0.04% | suppression of SP by efflux pump inhibitor ([2]; LnCaP/C81): suppressible | SP % with FTC ([2]; LnCaP/C81, DCV with 10 μM FTC, SP 0.16 % without inhibitor): 0.11% | suppression of SP by efflux pump inhibitor ([3]; LAPC-4): suppressible | SP % with FTC ([3]; LAPC-4, DCV with 10 μM FTC, SP 1.54 % without inhibitor): 2.24% | SP % with FTC ([4]; DU145/Doc50, DCV with 10 μM FTC, SP 40.3 % without inhibitor): 18.35% | inhibition of SP by efflux pump inhibitor ([4]; Doc resistant DU145 cells): not | SP % with FTC ([5]; LAPC-4/CSS100, DCV with 10 μM FTC, SP 0.36 % without inhibitor): 0.30% | suppression of SP by efflux pump inhibitor ([5]; hormone resistant derivative of LAPC-4): suppressible | SP % with FTC ([6]; DU145, DCV with 10 μM FTC, SP 1.04 % without inhibitor): 0.06% | SP % with FTC ([7]; DU145/Pac200, DCV with 10 μM FTC, SP 55 % without inhibitor): 56.5% | inhibition of SP by efflux pump inhibitor ([7]; Pac resistant DU145 cells): not

CC(=O)O[C@H]1C(=O)[C@@]2(C)[C@H]([C@H](OC(=O)c3ccccc3)[C@]3(O)C[C@H](OC(=O)[C@H](O)[C@@H](NC(=O)c4ccccc4)c4ccccc4)C(C)=C1C3(C)C)[C@]1(OC(C)=O)CO[C@@H]1C[C@@H]2O [Paclitaxel]
Paclitaxel Resistance (fold) ([8]; DU145 wt (reference line)): 1 fold | IC50 ([8]; Homo sapiens, DU-145, DU145 wt, read-out: Paclitaxel IC50): 2.5 nM | Paclitaxel Resistance (fold) [9, 20]: 400 fold | IC50 ([9]; Homo sapiens, DU-145, Du145 Doc50, read-out: Paclitaxel IC50): 1000 nM | Paclitaxel Resistance (fold) [10, 21]: 140 fold | IC50 ([10]; Homo sapiens, DU-145, DU145/Pac200, read-out: Paclitaxel IC50): 350 nM

CC(=O)O[C@@]12CO[C@@H]1C[C@H](O)[C@@]1(C)C(=O)[C@H](O)C3=C(C)[C@@H](OC(=O)[C@H](O)[C@@H](NC(=O)OC(C)(C)C)c4ccccc4)C[C@@](O)([C@@H](OC(=O)c4ccccc4)[C@H]21)C3(C)C [Docetaxel]
Docetaxel Resistance (fold) ([8]; DU145 wt (reference line)): 1 fold | IC50 ([8]; Homo sapiens, DU-145, DU145 wt, read-out: Docetaxel IC50): 0.5 nM | Docetaxel Resistance (fold) [9, 20]: 2000 fold | IC50 ([9]; Homo sapiens, DU-145, Du145 Doc50, read-out: Docetaxel IC50): 1000 nM | Docetaxel Resistance (fold) [10, 21]: 400 fold | IC50 ([10]; Homo sapiens, DU-145, DU145/Pac200, read-out: Docetaxel IC50): 200 nM

O=[As][O-].[Na+] [KML001, sodium meta arsenite]
sensitivity of resistant versus parental cell lines ([11]; growth curves from standard MTT assays): equally effective | IC50 ([11]; taxane-resistant, androgen resistant and hormone responsive parental lines, read-out: IC50's across all prostate cancer cell lines): 1000 to 6000 nM | IC100 concentration [8]: 13 µM | growth inhibition [8]: marked inhibition of growth | IC50 ([8]; read-out: IC50 KML001): 4000 nM | effect on mature (non-SP) cells after pretreatment [6]: also eradicated | effect on side population (SP) after pretreatment [6]: drastically reducing the SP | IC50 [12]: 4000 nM | IC50 [13]: 4000 nM | Pgp positive cell population [14]: reduced | IC50 [15]: 1000 nM | IC50 [16]: 3000 nM | growth inhibition ([9]; DU145/Doc50, MTT): marked inhibition of growth | IC50 ([9]; DU145/Doc50, MTT, 5 days continuous exposure, read-out: IC50 KML001): 5000 nM | effect on mature (non-SP) cells after pretreatment [7]: also eradicated | effect on side population (SP) after pretreatment [7]: drastically reducing the SP | hTERT transcript level [17]: significantly decreases | IC50 [18]: 6000 nM | growth inhibition ([10]; DU145/Pac200, MTT): marked inhibition of growth | IC50 ([10]; DU145/Pac200, MTT, 5 days continuous exposure, read-out: IC50 KML001): 6000 nM | IC50 [19]: 6000 nM

COc1ccc(CCN(C)CCCC(C#N)(c2ccc(OC)c(OC)c2)C(C)C)cc1OC (stereo not shown) [Verapamil]
SP % with Verapamil [1]: 0.12% | SP % with Verapamil [2]: 0.07% | SP % with Verapamil [3]: 1.63% | SP % with Verapamil [4]: 1.35% | SP % with Verapamil [5]: 0.19% | SP % with Verapamil ([6]; DU145, DCV with 50 μM Verapamil, SP 1.04 % without inhibitor): 0.16% | SP % with Verapamil [7]: 0.07%

N.N.[Cl][Pt][Cl] [cisplatin]
IC50 ([8]; DU145 parental, standard MTT, read-out: IC50 of cisplatin): 4000 nM | IC50 ([10]; DU145/Pac200, standard MTT, read-out: IC50 of cisplatin): 3000 nM
